Target: T1, ΔF508-CFTR (Homo sapiens, UniProt P13569, DEL508-508)
T1 construct: expressed in transfected cells
Test: Membrane potential optical assay, identification of correction compounds (ΔF508-CFTR correction)
Format: cell-based
Details: PercentActivity; NIH3T3 mouse fibroblasts stably expressing ΔF508-CFTR; 16-24 hrs with compound; read-out: Binned Max Efficacy
Source text: Membrane potential optical methods for assaying ΔF508-CFTR modulation properties of compounds.
The assay utilizes fluorescent voltage sensing dyes to measure changes in membrane potential using a fluorescent plate reader (e.g., FLIPR III, Molecular Devices, Inc.) as a readout for increase in functional ΔF508-CFTR in NIH 3T3 cells. The driving force for the response is the creation of a chloride ion gradient in conjunction with channel activation by a single liquid addition step after the cells have previously been treated with compounds and subsequently loaded with a voltage sensing dye.
To identify small molecules that correct the trafficking defect associated with ΔF508-CFTR; a single-addition HTS assay format was developed. Assay Plates containing cells are incubated for ˜2-4 hours in tissue culture incubator at 37° C., 5% CO2, 90% humidity. Cells are then ready for compound exposure after adhering to the bottom of the assay plates.
The cells were incubated in serum-free medium for 16-24 firs in tissue culture incubator at 37° C., 5% CO2, 90% humidity in the presence or absence (negative control) of test compound. The cells were subsequently rinsed 3× with Krebs Ringers solution and loaded with a voltage sensing redistribution dye. To activate ΔF508-CFTR, 10 μM forskolin and the CFTR potentiator, genistein (20 μM), were added along with Cl^−-free medium to each well. The addition of Cl^−-free medium promoted Cl^− efflux in response to ΔF508-CFTR activation and the resulting membrane depolarization was optically monitored using voltage sensor dyes.
Bath Solution #1: (in mM) NaCl 160, KCl 4.5, CaCl2 2, MgCl2 1, HEPES 10, pH 7.4 with NaOH.
Chloride-free bath solution: Chloride salts in Bath Solution #1 are substituted with gluconate salts.
NIH3T3 mouse fibroblasts stably expressing ΔF508-CFTR are used for optical measurements of membrane potential. The cells are maintained at 37° C. in 5% CO2 and 90% humidity in Dulbecco's modified Eagle's medium supplemented with 2 mM glutamine, 10% fetal bovine serum, 1×NEAA, β-ME, 1× pen/strep, and 25 mM HEPES in 175 cm^2 culture flasks. For all optical assays, the cells were seeded at ˜20,000/well in 384-well matrigel-coated plates and cultured for 2 hrs at 37° C. before culturing at 27° C. for 24 hrs. for the potentiator assay. For the correction assays, the cells are cultured at 27° C. or 37° C. with and without compounds for 16-24 hours.

T1 sequence (P13569 with tags, fused parts or gaps DEL508-508): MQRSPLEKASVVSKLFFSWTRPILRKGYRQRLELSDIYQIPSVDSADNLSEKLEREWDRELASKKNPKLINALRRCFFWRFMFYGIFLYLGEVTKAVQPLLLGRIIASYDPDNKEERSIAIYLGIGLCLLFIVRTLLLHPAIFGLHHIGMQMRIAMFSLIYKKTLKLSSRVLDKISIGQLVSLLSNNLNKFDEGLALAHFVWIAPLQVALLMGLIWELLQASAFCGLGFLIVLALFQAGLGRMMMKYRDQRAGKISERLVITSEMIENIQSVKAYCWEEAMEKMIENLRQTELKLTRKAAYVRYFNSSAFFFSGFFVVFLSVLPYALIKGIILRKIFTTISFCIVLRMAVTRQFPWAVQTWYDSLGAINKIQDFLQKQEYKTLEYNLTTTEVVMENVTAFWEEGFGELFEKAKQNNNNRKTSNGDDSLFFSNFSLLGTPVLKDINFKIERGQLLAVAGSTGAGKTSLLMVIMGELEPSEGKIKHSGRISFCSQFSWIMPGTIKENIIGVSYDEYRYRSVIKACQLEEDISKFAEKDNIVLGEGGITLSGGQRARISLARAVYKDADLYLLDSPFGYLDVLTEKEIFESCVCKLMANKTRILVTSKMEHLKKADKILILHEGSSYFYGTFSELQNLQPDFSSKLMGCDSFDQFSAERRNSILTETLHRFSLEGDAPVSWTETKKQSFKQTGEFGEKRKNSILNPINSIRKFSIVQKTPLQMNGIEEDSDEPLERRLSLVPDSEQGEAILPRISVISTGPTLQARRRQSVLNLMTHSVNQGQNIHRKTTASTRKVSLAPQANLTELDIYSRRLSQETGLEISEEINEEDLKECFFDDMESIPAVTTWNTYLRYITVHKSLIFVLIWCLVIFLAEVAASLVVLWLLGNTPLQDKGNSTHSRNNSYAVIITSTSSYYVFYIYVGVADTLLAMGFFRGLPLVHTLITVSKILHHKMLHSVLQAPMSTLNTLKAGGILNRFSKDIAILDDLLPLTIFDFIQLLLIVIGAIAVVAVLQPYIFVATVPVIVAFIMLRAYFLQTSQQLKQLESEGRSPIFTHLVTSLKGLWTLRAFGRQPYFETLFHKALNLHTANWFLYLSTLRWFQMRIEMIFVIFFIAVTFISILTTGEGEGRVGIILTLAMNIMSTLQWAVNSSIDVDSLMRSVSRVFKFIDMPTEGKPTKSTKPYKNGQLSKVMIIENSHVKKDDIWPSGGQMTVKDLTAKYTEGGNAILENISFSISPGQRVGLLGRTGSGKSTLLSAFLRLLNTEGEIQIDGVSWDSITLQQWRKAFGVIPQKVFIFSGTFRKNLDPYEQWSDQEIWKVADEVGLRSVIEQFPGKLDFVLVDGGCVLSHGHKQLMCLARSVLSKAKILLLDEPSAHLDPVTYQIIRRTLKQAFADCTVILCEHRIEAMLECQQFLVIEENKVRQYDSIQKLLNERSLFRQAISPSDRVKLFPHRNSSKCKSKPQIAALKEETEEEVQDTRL

SMILES | Emax [%]
O=C(Nc1ccc2cc[nH]c2n1)C1(c2ccc3c(c2)OCO3)CC1 [Compound 1, 1-(benzo[d][1,3]dioxol-5-yl)-N-(1H-pyrrolo[2,3-b]pyridin-6-yl)cyclopropanecarboxamide] | > 100
CC(C)(C)c1cc2nc(NC(=O)C3(c4ccc5c(c4)OCO5)CC3)ccc2[nH]1 [Compound 7] | 25 to 100
CC(C)(C)c1cc2cc(NC(=O)C3(c4ccc5c(c4)OCO5)CC3)ncc2[nH]1 [Compound 8] | 25 to 100
CCc1cc2cc(NC(=O)C3(c4ccc5c(c4)OC(F)(F)O5)CC3)ncc2[nH]1 [Compound 9, 1-(2,2-difluorobenzo[d][1,3]dioxol-5-yl)-N-(2-ethyl-1H-pyrrolo[2,3-c]pyridin-5-yl)cyclopropanecarboxamide] | > 100
CC1(c2cc3cc(NC(=O)C4(c5ccc6c(c5)OC(F)(F)O6)CC4)ncc3[nH]2)CC1 [Compound 10, 1-(2,2-difluorobenzo[d][1,3]dioxol-5-yl)-N-(2-(1-methylcyclopropyl)-1H-pyrrolo[2,3-c]pyridin-5-yl)cyclopropanecarboxamide] | > 100
O=C(Nc1cc2cc(C3CCC3)[nH]c2cn1)C1(c2ccc3c(c2)OC(F)(F)O3)CC1 [Compound 11, N-(2-cyclobutyl-1H-pyrrolo[2,3-c]pyridin-5-yl)-1-(2,2-difluorobenzo[d][1,3]dioxol-5-yl)cyclopropanecarboxamide] | > 100
CC(C)(C)c1cc2nc(NC(=O)C3(c4ccc5c(c4)OC(F)(F)O5)CC3)ccc2[nH]1 [Compound 12, N-(2-tert-butyl-1H-pyrrolo[3,2-b]pyridin-5-yl)-1-(2,2-difluorobenzo[d][1,3]dioxol-5-yl)cyclopropanecarboxamide] | > 100
CC(C)(C)c1cc2cc(NC(=O)C3(c4ccc5c(c4)OC(F)(F)O5)CC3)ncc2[nH]1 [Compound 14, N-(2-tert-butyl-1H-pyrrolo[2,3-c]pyridin-5-yl)-1-(2,2-difluorobenzo[d][1,3]dioxol-5-yl)cyclopropanecarboxamide] | > 100
CC(C)(C)c1cc2cc(NC(=O)C3(c4ccc5c(c4)OC(F)(F)O5)CC3)ncc2n1CCO [Compound 15, N-(2-tert-butyl-1-(2-hydroxyethyl)-1H-pyrrolo[2,3-c]pyridin-5-yl)-1-(2,2-difiuorobenzo[d][1,3]dioxol-5-yl)cyclopropanecarboxamide] | > 100

Results, then the compound that gave them:

Emax [%] | SMILES
25 to 100 | COc1ccc(C2(C(=O)Nc3ccc4[nH]c(C(C)(C)C)cc4n3)CC2)cc1 [Compound 2, N-(2-tert-butyl-1H-pyrrolo[3,2-b]pyridin-5-yl)-1-(4-methoxyphenyl)cyclopropanecarboxamide]
25 to 100 | COc1ccc(C2(C(=O)Nc3cnc4[nH]c(C(C)(C)C)cc4c3)CC2)cc1 [Compound 3, N-(2-tert-butyl-1H-pyrrolo[2,3-b]pyridin-5-yl)-1-(4-methoxyphenyl)cyclopropanecarboxamide]
25 to 100 | COc1cccc(C2(C(=O)Nc3ccc4[nH]c(C(C)(C)C)cc4n3)CC2)c1 [Compound 4, N-(2-tert-butyl-1H-pyrrolo[3,2-b]pyridin-5-yl)-1-(3-methoxyphenyl)cyclopropanecarboxamide]
25 to 100 | COc1cccc(C2(C(=O)Nc3cnc4[nH]c(C(C)(C)C)cc4c3)CC2)c1 [Compound 5]
> 100 | CC(C)(C)c1cc2cc(NC(=O)C3(c4ccc5c(c4)OCO5)CC3)cnc2[nH]1 [Compound 6]
> 100 | CC(C)(C)c1cc2cc(NC(=O)C3(c4ccc5c(c4)OC(F)(F)O5)CC3)cnc2[nH]1 [Compound 13, N-(2-tert-butyl-1H-pyrrolo[2,3-b]pyridin-5-yl)-1-(2,2-difluorobenzo[d][1,3]dioxol-5-yl)cyclopropanecarboxamide]
